Tests used:
K562 cells = test: MTT cell viability assay, K562 cells; assay type: cell-based; settings: Homo sapiens, 48 h
Description: (§1) To estimate the effects of N-Phenyl-2-pyrimidinamine derivatives (Figure 1A) on HEL, K562, and Jurkat cells, we treated these cells with the compounds at different concentrations (1–20 μM) for 48 h. […] H-121 could selectively impair the proliferation of HEL and Jurkat cells. H-123 blocked the proliferation of the Jurkat cells. Those four compounds had no toxicity to the HL7702 cell line.
(§2) The logarithmically grown HEL cells were seeded in a 96-well culture plate at a density of 8000 cells per well and treated with different concentrations of H-120 (0.125 μM, 0.25 μM, 0.5 μM, and 1 μM) or 0.1% DMSO (control). After 24 h, 48 h, and 72 h treatment, the cells were added to 10 μL of MTT reagent for 4 h, and then added to 100 μL of triple cleavage fluid (SDS 10 g, isobutanol 5 mL and 10M HCl 0.1 mL, dissolved with ddH2O into 100 mL solution). After using a microscope to observe the completely dissolved crystal, the cells’ optical absorbance value was measured at 570 nm using an enzyme-labeling instrument (BioTek, Winooski, VT, United States). Inhibition rate = (OD value of DMSO group-OD value of experimental group)/OD value of DMSO group × 100%.

[1] = tested on: F-MuLV-induced leukemia mice; test: F-MuLV-induced erythroleukemia mice; assay type: in vivo, BALB/c mice; settings: for number of leukemic cells in the spleens (H&E staining): VCR 0.25 mg/kg, H-120 1-4 mg/kg intraperitoneally
Description: We used the F-MuLV-induced leukemia mice to determine the anti-leukemia activity of H-120. […] The effect of H-120 treatment is similar to that in the vincristine (VCR) treatment group (Figure 6A,C). […] The CD71 and Ter119 have been broadly used to reflect mice’s dynamic maturation of erythrocytes. We tested CD71 and Ter119 expression in spleen cells and bone marrow cells by using flow cytometry.
The NIH3T3 cells expressing the F-MuLV clone 57 vector were donated by Professor Ben-David Yaacov, Key Laboratory of Natural Product Chemistry, Chinese Academy of Sciences, Guizhou Province. In order to induce leukemia, BALB/c mice (male and females; Tongxin, Chongqing, China), aged one day, were administered a solitary intraperitoneal injection of F-MuLV. Then, infected neonates were weaned at 4 weeks and randomly divided into 6 groups: normal group (NC), model group (M), positive control group (VCR: 0.25 mg/kg), H-120 low dose group (H-120-L: 1 mg/kg), H-120 medium dose group (H-120-M: 2 mg/kg), and H-120 high dose group (H-120-H: 4 mg/kg). After 5 weeks of virus infection, mice were treated with H-120 intraperitoneally every other day for 3 weeks. The normal and model groups were given saline, and the control group was given vincristine intraperitoneally. Under the supervision of experienced staff, the leukemia mice were sacrificed humanely by cervical dislocation. Serum biochemical indexes of the mice were detected. The spleens of the mice were removed. A portion of the spleen was fixed in formaldehyde for 24 h, and paraffin was embedded and sliced. The effects of H-120 on the normal physiological structure of the spleen were observed by H&E staining. Then, part of the spleen tissue was ground and prepared into a single-cell suspension, which was stained with CD71, Ter119, CD4, CD8a, and B220 antibodies for 30 min, respectively. The expression of markers on the spleen cell surfaces of mice was analyzed by flow cytometry.

HEL cells [2] = test: Cell cycle analysis (PI, flow cytometry); assay type: cell-based; settings: 0.125-1 μM, 24 h
Description: (§3) Cell cycle regulation is critical for cell differentiation and proliferation. To investigate whether H-120 affects the cell cycle of HEL, we treated HEL cells with various concentrations of H-120.
(§4) For the apoptosis detection assay, the logarithmically grown HEL cells were treated with H-120 solution (0.125 μM, 0.25 μM, 0.5 μM, and 1 μM) for 24 h, 48 h, and 72 h. Subsequently, the cells were collected and rinsed three times with pre-cooled PBS. Based on the instruction of the Annexin V-FITC apoptosis detection kit, the cells were resuspended in 50 μL of 1 × binding buffer and stained for 15 minutes. Then, the apoptosis rate was determined using flow cytometry (ACEA NovoCyte, San Diego, CA, United States). For cell cycle analysis, HEL cells were treated with the different concentrations of H-120 (0.125 μM, 0.25 μM, 0.5 μM, 1 μM) for 24 h. Cells were collected, fixed with pre-cooled 70% ethanol, and kept at 4 °C for 4 h before being transferred to −20 °C overnight. Cells were stained with 0.5 mL of PI (propidium iodide, 50 µg/mL), RNase (5 µg/mL) inhibitor, and Triton × 100 (0.5 µg/mL) for 10 min at room temperature in the dark and then analyzed by flow cytometry.

HL7702 cells = test: MTT cytotoxicity on normal hepatic cell line HL7702; assay type: cell-based; settings: Homo sapiens, L02, 48 h
Description: as §1
(§5) To validate the effects of H-120 on the viability of HEL cells, we treated the cells with the compound at different concentrations (1–20 μM) for 24 h, 48 h, and 72 h. […] However, H-120 was not cytotoxic on normal HL7702 (IC50 > 20 μM) (Figure 1B). The morphology of HEL cells treated with H-120 gradually crumpled and appeared fragmented (Figure 1E).
as §2

HEL cells [3] = test: JC-1 mitochondrial membrane potential assay; assay type: cell-based; settings: 0.125-1 μM, 48 h, flow cytometry
Description: (§6) Apoptosis plays a crucial role in impairing cancer cell viability. To determine whether the H-120 inhibiting HEL cell growth is caused by apoptosis, we applied HEL cells with different concentrations of H-120. […] To explore the mechanism of apoptosis, we used JC-1 staining to detect the effect of H-120 on mitochondrial membrane potential. […] The results confirmed that H-120 can induce HEL cell apoptosis by impairing mitochondria.
Cells (2 × 10^5) were seeded in a 2 mL medium with different concentrations of H-120 (0.125 μM, 0.25 μM, 0.5 μM, 1 μM). After being treated with H-120 for 48 h, the cells were preincubated with JC-1 working solution for 20 min at 37 °C, 5% CO2. After incubation, the dye was removed, and the cells were washed two times with JC-1 [48].

HEL cells [4] = test: Annexin V-FITC/PI apoptosis detection by flow cytometry; assay type: cell-based; settings: 1 μM
Description: as §6
as §4, with “Cells were collected, fixed with pre-cooled 70% ethanol, and kept at 4 °C for 4 h before being transferred to −20 °C overnight.” left out

HEL cells [5] = test: Hoechst 33258 staining (DNA damage); assay type: cell-based; settings: 0.125-1 μM, 24 h
Description: as §3
After subjecting HEL cells to H-120 solution (0.125 μM, 0.25 μM, 0.5 μM, 1μM) for 24 h, the cells were collected, resuspended, and washed with pre-cooled PBS. Subsequently, the cells were fixed, stained, and washed according to the instructions provided by the Apoptosis-Hoechst 33258 Staining Kit. To prevent fluorescence interference, an appropriate volume of anti-fluorescence quenching sealing solution was added to the cells. The cells were then placed on a spare slide, covered with a coverslip, and immediately observed and photographed using a Nikonfluorescence microscope.

HEL cells [6] = test: Western blotting of cell cycle, apoptosis, Ras/Raf/MEK/ERK and STAT3/c-Myc proteins; assay type: cell-based; settings: Western blot
Description: as §3
To study the effect of H-120 on apoptosis proteins, we treated HEL cells with various concentrations of H-120.
To assess whether the effect of H-120 on HEL cells is involved in the inactivation of Ras/Raf/MEK/ERK/MAPK signaling pathway, we tracked this pathway bottom-up in HEL cells treated with H-120 using Western blotting.
To examine the effect of H-120 on the p-STAT3 and c-Myc, we checked the p-STAT3 and c-Myc levels in HEL cells treated with H-120. […] STAT3 acts through its phosphorylation and enters nuclear. The nuclear–cytoplasmic separation experiment was conducted.
HEL cells were collected after 24 h of H-120 treatment and washed with PBS, and the supernatant was discarded. According to the instructions of the Nuclear and Cytoplasmic Protein Extraction Kit (Beyotime Biotechnology, Shanghai, China), we added cytoplasmic protein extraction reagent A equipped with PMSF (phenylmethanesulfonyl fluoride) and used vigorous vortexing at 2500 rpm for 5 s to suspend and disperse the cell precipitation entirely. After 15 min of an ice bath, we added cytoplasmic protein extraction reagent B. The sample was vigorously vortexed at 2500 rpm for 5 s, then centrifuged at 4 °C for 5 min at 12,000× g, and the supernatant was extracted to leave a precipitate. The supernatant was the cytoplasmic protein. For the precipitate, the […] protein extraction reagent equipped with PMSF was added immediately, mixed, and then placed on ice. The highest-speed vigorous vortex was performed for 20 s every 2 min for 30 min, followed by centrifugation at 12,000× g at 4 °C for 10 min. Finally, the supernatant was taken as the nuclear protein.
HEL cells after drug action were collected, added to and mixed with cell lysis buffer, and […] on ice for one hour before protein concentration was detected using a BCA (bicinchoninic acid) kit. Proteins (50 μg) were separated by sodium dodecyl sulfate-polyacrylamide gel electrophoresis and transferred to a PVDF (polyvinylidene fluoride) membrane ([…], Bio-Rad, Hercules, CA, USA) via wet transfer. Then, 5% bovine serum albumin closed the membrane for 1 h, and the membrane was washed three times with TBS (20 mM Tris-HCl) for 5 min each time. Membranes were allowed to incubate with the primary antibody overnight at 4 °C. The anti-rabbit antibody secondary antibody was incubated at room temperature for 2 h. Then, the membrane was washed with 1× TBST (20 mM Tris-HCl, 0.1% Tween 20) for 15 min. After washing, the fetal membrane was scanned with an infrared imaging scanner. β-actin was used as a loading control.

HEL cells [7] = test: MTT cell viability assay, HEL cells; assay type: cell-based; settings: for IC50: Homo sapiens, HEL, 48 h
Description: as §1, §5, §2
The logarithmically grown HEL cells were collected and planted in 96-well plates at a density of 8000 cells per well. After the cell state was stabilized, HEL cells were treated with H-120 solution (0.125 μM, 0.25 μM, 0.5 μM, 1 μM), and then the OD value was measured at 570 nm in different periods of time. The growth curves were plotted.

Jurkat cells = test: MTT cell viability assay, Jurkat cells; assay type: cell-based; settings: Homo sapiens, 48 h
Description: as §1, §2

| Compound | IC50 (K562 cells) | IC50 (Jurkat cells) | number of leukemic cells in the spleens (H&E staining) ([1]; vs model group) | IC50 (HL7702 cells) | IC50 (HEL cells [7]) | other results |
| --- | --- | --- | --- | --- | --- | --- |
| C#CC(=O)Nc1ccc(Nc2ncc(C)c(Nc3sccc3C(=O)NC)n2)cc1 [H-120, 2-[5-Methyl-2-(4-propynoylamino-phenylamino)-pyrimidin-4-ylamino]-thiophene-3-carboxylic acid methylamide] | 2.34 ± 0.22 µM | 0.665 ± 0.02 µM | decreased significantly | > 20 µM | 0.148 ± 0.04 µM | effects on renal and cardiac functions (URA, CREA, UA, CK-MB) ([1]; erythroleukemia mice): no effects; proportions of CD4, CD8a and B220 cells in spleen ([1]; flow cytometry): increased significantly; mature erythrocytes CD71-Ter119+ in spleen cells and bone marrow cells ([1]; flow cytometry, vs model group): significantly increased; levels of liver index, ALT and AST ([1]; vs model group): significantly lower; spleen weight ([1]; vs model mice, H-120 1, 2, 4 mg/kg intraperitoneally every other day for 3 weeks): significantly declined; proportion of the G2/M phase in HEL cells (HEL cells [2]): increased; relative value of the JC-1 monomer (HEL cells [3]): significantly increased; apoptosis rate of HEL cells (HEL cells [4]; 48 h): 14.28%; apoptosis rate of HEL cells (HEL cells [4]; 72 h): 36.45%; DNA damage (Hoechst staining) (HEL cells [5]): caused DNA damage in a dose-dependent manner; Bad, cleaved caspase-9, cleaved caspase-3 and cleaved PARP expression (HEL cells [6]): up-regulated considerably; Bcl-2 and Bcl-xL expression (HEL cells [6]): significantly down-regulated; expressions of Ras, phosphorylated Raf, MEK and ERK (HEL cells [6]): significantly reduce; levels of cell cycle proteins p-CDC25C and CyclinB1 (HEL cells [6]; dose-dependent): decreased; p53 level (HEL cells [6]; dose-dependent): up-regulated; p-STAT3 and c-Myc levels (HEL cells [6]; dose-dependent): significantly down-regulated; HEL cell proliferation (HEL cells [7]; 24 h, 48 h and 72 h): prevented the HEL cell proliferation in a dose- and time-dependent manner |
| CNC(=O)c1ccccc1Nc1nc(Nc2ccc(Nc3c(NC45CC6CC(CC(C6)C4)C5)c(=O)c3=O)cc2)ncc1C(F)(F)F [H-122, 2-((2-((4-((2-(((1R,3R,5S)-Adamantan-1-yl)amino)-3,4-dioxocyclobut-1-en-1-yl)amino)phenyl)amino)-5-(trifluoromethyl)pyrimidin-4-yl)amino)-N-methylbenzamide] | 16.3 ± 1.11 µM | 1.63 ± 0.28 µM | – | > 20 µM | 11.5 ± 0.53 µM | – |
| CC[C@]1(O)C[C@H]2CN(CCc3c([nH]c4ccccc34)[C@@](C(=O)OC)(c3cc4c(cc3OC)N(C=O)[C@H]3[C@@](O)(C(=O)OC)[C@H](OC(C)=O)[C@]5(CC)C=CCN6CC[C@]43[C@@H]65)C2)C1 [VCR, Vincristine, reference compound] | – | – | decreased significantly | – | – | – |

Now from value to molecule, other results behind:

| IC50 (K562 cells) | IC50 (Jurkat cells) | Compound | number of leukemic cells in the spleens (H&E staining) ([1]; vs model group) | IC50 (HL7702 cells) | IC50 (HEL cells [7]) | other results |
| --- | --- | --- | --- | --- | --- | --- |
| > 20 µM | 10.4 ± 0.238 µM | C=CC(=O)Nc1ccc(Nc2ncc(C)c(Nc3sccc3C(=O)NC)n2)cc1 [H-121, 2-((2-((4-Acrylamidophenyl)amino)-5-methylpyrimidin-4-yl)amino)-N-methylthiophene-3-carboxamide] | – | > 20 µM | 8.78 ± 0.45 µM | – |
| > 20 µM | 5.2 ± 1.17 µM | CNC(=O)c1ccsc1Nc1nc(Nc2ccc(Nc3c(NC45CC6CC(CC(C6)C4)C5)c(=O)c3=O)cc2)ncc1C(F)(F)F [H-123, 2-((2-((4-((2-(((1R,3R,5S)-Adamantan-1-yl)amino)-3,4-dioxocyclobut-1-en-1-yl)amino)phenyl)amino)-5-(trifluoromethyl)pyrimidin-4-yl)amino)-N-methylthiophene-3-carboxamide] | – | > 20 µM | > 20 µM | – |

— publication PMC11013136, “Design, Synthesis, and Anti-Leukemic Evaluation of a Series of Dianilinopyrimidines by Regulating the Ras/Raf/MEK/ERK and STAT3/c-Myc Pathways” (Molecules, 2024)
